From US20240368174A1, “Antiviral Heterocyclic Compounds” (Enanta Pharmaceuticals, Inc., priority 2023, published 2024)

The compounds below were run on HMPV clinical isolate A2 strain TN 94-49 (assay: HMPV antiviral assay, Method 2 (LLC-MK2 cells with CP-100-356, ATP-Lite)). Conditions: human metapneumovirus, 168 h; hMPV A2 TN/94-49, LLC-MK2 cells with 4 μM CP-100-356, 7 days, ATP-Lite.
Format: cell-based
Method: In vitro HMPV antiviral activity was evaluated using the clinical isolate A2 strain TN 94-49 (obtained from Dr. John Williams, Vanderbilt University, Tennessee) and LLC-MK2 cells (Millipore Sigma CB_85062804), an immortalized kidney epithelial cell line from Macaca mulatta. Compounds were resuspended in dimethyl sulfoxide (DMSO) at 10 mM, serially diluted and added to a 384-well source plate. Subsequently, the compounds were diluted and transferred onto 384-well assay plates using the Echo-650 automated liquid handling system (Beckman Coulter, Indiana). The test compounds were assessed in duplicate at a top concentration of 200 nM followed by 2.5-fold serial dilutions to give a total of 10 concentration points. DMSO control wells were also included on the assay plates and were either infected or not, acting as positive and negative controls. A2 TN 94-49 virus infections were performed in-suspension with LLC-MK2 cells. The cells were washed twice with PBS and removed from the cell-culture flask with 0.25% trypsin-EDTA (Thermo Fisher Scientific, MA). The trypsin-EDTA was inactivated by resuspending in 2% fetal bovine serum (FBS) and OptiMEM (ThermoFisher Scientific, MA) containing 1% antibiotic-antimycotic. Cells were pelleted by centrifuging for 5 minutes at 800 rpm, the supernatant was removed, and cells were re-suspended and washed in PBS plus 100 μg/mL CaCl2). This step was performed twice. Cells were then re-suspended in serum-free (SF)-OptiMEM containing 4 μg/mL TPCK-Trypsin (Sigma Aldrich, MO), 1% antibiotic-antimycotic (ThermoFisher Scientific, MA), 100 μg/mL CaCl2), and 4 μM of CP-100-356, a P-glycoprotein inhibitor. Cells were counted and seeded at a density of 5,000 cells/well, 12.5 μL/well. Virus infections were done at a multiplicity of infection (MOI) of 0.16 with 12.5 μL added per well. Virus infections were performed in infection media which contained SF-OptiMEM, 100 μg/mL CaCl2) and 1% antibiotic-antimycotic. HMPV viral stocks are suspended in infection media+5% glycerol, thus an equal volume of infection media+5% glycerol was added to uninfected wells to equalize the final % glycerol across all wells of the assay plate. The final concentration of TPCK-trypsin was 2 μg/mL. The final concentration of CP-100-356 was 2 μM. The assay plates were incubated at 37° C., 5% CO2 for 7 days. After 7 days incubation, 12.5 μL of ATP-Lite (PerkinElmer, MA) was added to each well and the raw luminescence values were determined using the Envision 2104 (Perkin Elmer, MA). The average of the raw luminescence values for the cells and virus only positive control wells was subtracted from all conditions tested and the percent cell health was determined by dividing these values by the average of the cells only negative control wells. EC50 values were then calculated by non-linear regression using a four-parameter curve logistic equation. The curve fit model employed was XLFit Dose Response One Site Model 200: y=(A+(B/(1+((x/C)^D)))), where A is the minimum y value, B is the maximum y value, C is the log EC50 value, and D is the slope factor.

Row | EC50 [nM] | SMILES
1 | < 200 | COc1cc(C(=O)NC[C@](O)(c2cc3c(c(-c4cc(C(F)(F)F)ncc4F)n2)OC[C@]3(C)C(N)=O)C2(F)CC2)cc2cn(C(F)F)nc12 [Example 667]
2 | < 200 | COc1nccc(-c2nc([C@@](O)(CNC(=O)c3cc(OC)c4nn(C5CC5)cc4c3)c3cccc(F)c3)cc3c2OC[C@]3(C)C(N)=O)c1Cl [Example 877]
3 | > 200 | COc1cc(C(=O)NC[C@](O)(c2cc3c(c(-n4ncc5c4CCCC5)n2)OC[C@]3(C)C(N)=O)C2CC2)cc2cn(C3CC3)nc12 [Example 642]
4 | > 200 | COc1cc(C(=O)NC[C@](O)(c2cc3c(c(-c4ccnc(C5CCOCC5)c4Cl)n2)OC[C@]3(C)C(N)=O)C2CC2)cc2cn(C(F)F)nc12 [Example 904]
5 | < 200 | COc1cc(C(=O)NC[C@](O)(c2cc3c(c(-c4c(C)cncc4C)n2)OC[C@]3(C)C(N)=O)C2CC2)cc2cn(C3CC3)nc12 [Example 726]
6 | < 200 | COc1nccc(-c2nc([C@@](O)(CNC(=O)c3cc(OC)c4nn(C5(F)CC5)cc4c3)C3CC(F)(F)C3)cc3c2OC[C@]3(C)C(N)=O)c1Cl [Example 896]
7 | < 200 | COc1nccc(-c2nc([C@@](O)(CNC(=O)c3cc(OC)c4nn(C5CC5)cc4c3)c3ccc(F)cc3)cc3c2OC[C@]3(C)C(N)=O)c1Cl [Example 696]
8 | < 200 | COc1cc(C(=O)NC[C@@](O)(c2ccccc2)c2cc3c(c(-c4ccnc(C)c4Cl)n2)OC[C@]3(C)C(N)=O)cc2cn(C(F)F)nc12 [Example 694]
9 | > 200 | COc1cc(C(=O)NC[C@](O)(c2cc3c(c(-c4ccnc(OCC(C)C)c4Cl)n2)OC[C@]3(C)C(N)=O)C2CC2)cc2cn(C3CC3)nc12 [Example 804]
10 | < 200 | COc1cc(-c2nc([C@@](O)(CNC(=O)c3cc(OC)c4nn(C5(F)CC5)cc4c3)c3ccccc3)cc3c2OC[C@]3(C)C(N)=O)c(F)cn1 [Example 640]
11 | < 200 | COc1nccc(-c2nc([C@@](O)(CNC(=O)c3cc(OC)c4nc(C5CC5)oc4c3)C3(F)CC3)cc3c2OC[C@]3(C)C(N)=O)c1Cl [Example 645]

Same assay, conditions: human metapneumovirus; hMPV A2 TN/94-49, LLC-MK2 cells with CP-100-356, Method 2

Row | EC50 [nM] | SMILES
12 | < 200 | COc1nccc(-c2nc([C@@](O)(CNC(=O)c3cc(OC)n4nc(C5CC5)cc4c3)C(F)(F)F)cc3c2OC[C@]3(C)C(N)=O)c1Cl [Example 590]
13 | > 200 | COc1cc(C(=O)NC[C@](O)(c2cc3c(c(-c4ccnc(C)c4Cl)n2)OC[C@]3(C)C(N)=O)C2(F)CC2)cc2oc(C(F)F)nc12 [Example 533]
14 | < 200 | COc1cc(C(=O)NC[C@](O)(c2cc3c(c(-c4ccnc(F)c4Cl)n2)OC[C@]3(C)C(N)=O)C2CC2)cc2cn(C(F)F)nc12 [Example 207]
15 | < 200 | COc1cc(C(=O)NC[C@@](O)(c2ccccc2)c2cc3c(c(-c4cc(C(F)(F)F)c(F)cc4F)n2)OC[C@]3(C)C(N)=O)cc2cn(C3CC3)nc12 [Example 302]
16 | < 200 | COc1cc(C(=O)NC[C@@](O)(c2ccccc2)c2cc3c(c(-c4ccc(F)c(F)c4Cl)n2)OC[C@]3(C)C(N)=O)cc2cn(C3(F)CC3)nc12 [Example 370]
17 | < 200 | COc1cc(C(=O)NC[C@](O)(c2cc3c(c(-c4cc(C(F)(F)F)c(F)cc4F)n2)OC[C@]3(C)C(N)=O)C(F)(F)F)cc2cn(C3CC3)nc12 [Example 395]
18 | < 200 | COc1cc(C(=O)NC[C@@](O)(c2ccccc2)c2cc3c(c(-c4cc(C(F)(F)F)c(F)cc4F)n2)OC[C@]3(C)C(N)=O)cc2cn(C3(F)CC3)nc12 [Example 303]
19 | < 200 | COc1cc(C(=O)NC[C@@](O)(c2ccnc(F)c2)c2cc3c(c(-c4cccc(Cl)c4Cl)n2)OC[C@]3(C)C(N)=O)cc2cn(C3CC3)nc12 [Example 492]
20 | < 200 | COc1cc(C(=O)NC[C@@](O)(c2cccc(F)c2)c2cc3c(c(-c4ccnc(C(F)F)c4Cl)n2)OC[C@]3(C)C(N)=O)cc2oc(C3CC3)nc12 [Example 567]
21 | > 200 | COc1cc(C(=O)NC[C@@](O)(c2cccc(F)c2)c2cc3c(c(-c4ccncc4Cl)n2)OC[C@]3(C)C(N)=O)cc2cn(C3CC3)nc12 [Example 377]
22 | < 200 | COc1nccc(-c2nc([C@@](O)(CNC(=O)c3cc(OC)c4nn(C5(F)CC5)cc4c3)c3ccccc3)cc3c2OC[C@]3(C)C(N)=O)c1Cl [Example 555]
23 | < 200 | COc1cc(C(=O)NC[C@@](O)(c2ccccc2)c2cc3c(c(-c4cc(Cl)c(F)cc4F)n2)OC[C@]3(C)C(N)=O)cn2cc(C3CC3)nc12 [Example 115]
24 | < 200 | Cc1cc(C(=O)NC[C@@](O)(c2ccccc2)c2cc3c(c(-c4cc(Cl)c(F)cc4F)n2)OC[C@]3(C)C(N)=O)cc2cn[nH]c12 [Example 118]
25 | < 200 | COc1cc(C(=O)NC[C@](O)(c2cc3c(c(-c4ccnc(C(F)(F)F)c4Cl)n2)OC[C@]3(C)C(N)=O)C(F)(F)F)cc2oc(C(F)F)nc12 [Example 597]
26 | < 200 | COc1cc(C(=O)NC[C@@](O)(c2cccc(F)c2)c2cc3c(c(-c4ccnc(C(F)F)c4Cl)n2)OC[C@]3(C)C(N)=O)cc2cn(C3(F)CC3)nc12 [Example 566]
27 | < 200 | COc1cc(C(=O)NC[C@@](O)(c2cccc(F)n2)c2cc3c(c(-c4cc(Cl)c(F)cc4F)n2)OC[C@]3(C)C(N)=O)cn2cc(C3CC3)nc12 [Example 154]
28 | < 200 | COc1cc(C(=O)NC[C@](O)(c2cc3c(c(-c4cc(C(F)F)c(F)cc4F)n2)OC[C@]3(C)C(N)=O)C(F)(F)F)cc2cn(C3CC3)nc12 [Example 396]
29 | < 200 | C[C@]1(C(N)=O)COc2c1cc([C@@](O)(CNC(=O)c1cc(OC3CC3)c3ncc(Cl)cc3c1)c1ccccc1)nc2-c1cc(Cl)c(F)cc1F [Example 196]
30 | < 200 | C[C@]1(C(N)=O)COc2c1cc([C@@](O)(CNC(=O)c1cc(OC3CC3)c3ncc(Cl)cc3c1)c1cccc(F)c1)nc2-c1cccc(Cl)c1Cl [Example 334]
31 | > 200 | COc1cc(C(=O)NC[C@](O)(c2cccc(F)c2)c2cc3c(c(-c4ccc(C(C)(C)O)cc4)n2)OC[C@]3(C)C(N)=O)cc2cn(C3(F)CC3)nc12 [Example 398]
32 | < 200 | COc1nccc(-c2nc([C@@](O)(CNC(=O)c3cc(OC)c4nc(C(F)F)oc4c3)c3cccc(F)c3)cc3c2OC[C@]3(C)C(N)=O)c1Cl [Example 561]
33 | < 200 | CNc1cc([C@](O)(CNC(=O)c2cc(OC)c3nn(C4CC4)cc3c2)c2cc3c(c(-c4cc(Cl)c(F)cc4F)n2)OC[C@]3(C)C(N)=O)ccn1 [Example 490]
34 | < 200 | COc1cc(C(=O)NC[C@](O)(c2cc3c(c(-c4cc(Cl)ncc4Cl)n2)OC[C@]3(C)C(N)=O)C2CC2)cc2cn(C3CC3)nc12 [Example 389]
35 | < 200 | COc1cc(C(=O)NC[C@@](O)(c2ccccc2)c2cc3c(c(-c4cc(C(F)(F)F)c(F)cc4F)n2)OC[C@]3(C)C(N)=O)cc2cn(C(F)F)nc12 [Example 304]
36 | < 200 | COc1cc(C(=O)NCC(O)(c2cc(F)nc(F)c2)c2cc3c(c(-c4cccc(Cl)c4Cl)n2)OC[C@]3(C)C(N)=O)cc2cn(C3CC3)nc12 (stereo partly drawn) [Example 499]
37 | < 200 | C[C@]1(C(N)=O)COc2c1cc([C@@](O)(CNC(=O)c1ccc3nc(C4CC4)oc3c1)c1ccccc1)nc2-c1cc(F)c(F)cc1F [Example 194]
38 | < 200 | COc1cc(C(=O)NC[C@](O)(c2cc3c(c(-c4ccnc(F)c4F)n2)OC[C@]3(C)C(N)=O)C2CC2)cc2cn(C3CC3)nc12 [Example 381]
39 | < 200 | C[C@]1(C(N)=O)COc2c1cc([C@@](O)(CNC(=O)c1cc(OC3CC3)c3ncc(Cl)cc3c1)C1CC1)nc2-c1cc(Cl)c(F)cc1F [Example 226]
